Source: patent US8192962B2, “Processes for detecting toxic substances” (Daikin Industries, Ltd., priority 2001, dated 2012)

Tested on: Energy system protein genes
Assay: DNA chip mRNA expression in yeast, energy system protein genes (Table 4)
Type: cell-based, Saccharomyces cerevisiae S288C
Summary of the method: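 Cells were grown at 25° C. in YPD, treated at logarithmic phase for 2 h with a chemical at a concentration inhibiting growth but not causing death, and compared with untreated cultures. Labeled cDNA was hybridized to a DNA chip carrying all yeast genes, and the expression ratio was taken from scanner fluorescence.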

For `C[S+](C)[O-]` [(15), dimethylsulfoxide], the “The level of expressed mRNA in the presence of chemical substance/The level of expressed mRNA in the absence of chemical substance” value (yeast gene YJL052W) was 2.3, the “The level of expressed mRNA in the presence of chemical substance/The level of expressed mRNA in the absence of chemical substance” value (yeast gene YJL166W, cells incubated two hours with the chemical substance) was 0.5 and the “The level of expressed mRNA in the presence of chemical substance/The level of expressed mRNA in the absence of chemical substance” value (yeast gene YJR009C) was 2.1. For the same molecule, the “The level of expressed mRNA in the presence of chemical substance/The level of expressed mRNA in the absence of chemical substance” value (yeast gene YJR048W) was 0.6, the “The level of expressed mRNA in the presence of chemical substance/The level of expressed mRNA in the absence of chemical substance” value (yeast gene YJR155W) was 2.6 and the “The level of expressed mRNA in the presence of chemical substance/The level of expressed mRNA in the absence of chemical substance” value (yeast gene YKL016C, cells incubated two hours with the chemical substance) was 0.7. The “The level of expressed mRNA in the presence of chemical substance/The level of expressed mRNA in the absence of chemical substance” value (yeast gene YKL035W) was 1.0, the “The level of expressed mRNA in the presence of chemical substance/The level of expressed mRNA in the absence of chemical substance” value (yeast gene YKL060C, cells incubated two hours with the chemical substance) was 1.6 and the “The level of expressed mRNA in the presence of chemical substance/The level of expressed mRNA in the absence of chemical substance” value (yeast gene YKL085W, cells incubated two hours with the chemical substance) was 0.5. The “The level of expressed mRNA in the presence of chemical substance/The level of expressed mRNA in the absence of chemical substance” value (yeast gene YKL150W) was 0.9, the “The level of expressed mRNA in the presence of chemical substance/The level of expressed mRNA in the absence of chemical substance” value (yeast gene YKL152C) was 1.8 and the “The level of expressed mRNA in the presence of chemical substance/The level of expressed mRNA in the absence of chemical substance” value (yeast gene YKR058W, cells incubated two hours with the chemical substance, 25° C., YPD medium) was 0.5. For the same molecule, the “The level of expressed mRNA in the presence of chemical substance/The level of expressed mRNA in the absence of chemical substance” value (yeast gene YKR097W) was 2.5, the “The level of expressed mRNA in the presence of chemical substance/The level of expressed mRNA in the absence of chemical substance” value (yeast gene YLL041C, cells incubated two hours with the chemical substance) was 0.4 and the “The level of expressed mRNA in the presence of chemical substance/The level of expressed mRNA in the absence of chemical substance” value (yeast gene YLR038C, cells incubated two hours with the chemical substance) was 0.7. The “The level of expressed mRNA in the presence of chemical substance/The level of expressed mRNA in the absence of chemical substance” value (yeast gene YLR164W, cells incubated two hours with the chemical substance) was 0.7, the “The level of expressed mRNA in the presence of chemical substance/The level of expressed mRNA in the absence of chemical substance” value (yeast gene YLR174W, cells incubated two hours with the chemical substance) was 0.8 and the “The level of expressed mRNA in the presence of chemical substance/The level of expressed mRNA in the absence of chemical substance” value (yeast gene YLR273C) was 2.6. For the same molecule, the “The level of expressed mRNA in the presence of chemical substance/The level of expressed mRNA in the absence of chemical substance” value (yeast gene YLR295C, cells incubated two hours with the chemical substance, 25° C., YPD medium) was 0.5, the “The level of expressed mRNA in the presence of chemical substance/The level of expressed mRNA in the absence of chemical substance” value (yeast gene YLR304C, cells incubated two hours with the chemical substance) was 1.6 and the “The level of expressed mRNA in the presence of chemical substance/The level of expressed mRNA in the absence of chemical substance” value (yeast gene YLR345W) was 1.0. For the same molecule, the “The level of expressed mRNA in the presence of chemical substance/The level of expressed mRNA in the absence of chemical substance” value (yeast gene YLR377C, cells incubated two hours with the chemical substance) was 0.8, the “The level of expressed mRNA in the presence of chemical substance/The level of expressed mRNA in the absence of chemical substance” value (yeast gene YLR395C, cells incubated two hours with the chemical substance) was 0.4 and the “The level of expressed mRNA in the presence of chemical substance/The level of expressed mRNA in the absence of chemical substance” value (yeast gene YML054C) was 1.1. The “The level of expressed mRNA in the presence of chemical substance/The level of expressed mRNA in the absence of chemical substance” value (yeast gene YML087C) was 0.3, the “The level of expressed mRNA in the presence of chemical substance/The level of expressed mRNA in the absence of chemical substance” value (yeast gene YML100W) was 1.8 and the “The level of expressed mRNA in the presence of chemical substance/The level of expressed mRNA in the absence of chemical substance” value (yeast gene YML120C, cells incubated two hours with the chemical substance) was 0.5. The “The level of expressed mRNA in the presence of chemical substance/The level of expressed mRNA in the absence of chemical substance” value (yeast gene YML125C) was 1.9, the “The level of expressed mRNA in the presence of chemical substance/The level of expressed mRNA in the absence of chemical substance” value (yeast gene YMR089C) was 1.8 and the “The level of expressed mRNA in the presence of chemical substance/The level of expressed mRNA in the absence of chemical substance” value (yeast gene YMR105C) was 0.9. The “The level of expressed mRNA in the presence of chemical substance/The level of expressed mRNA in the absence of chemical substance” value (yeast gene YMR118C) was 0.9, the “The level of expressed mRNA in the presence of chemical substance/The level of expressed mRNA in the absence of chemical substance” value (yeast gene YMR261C, cells incubated two hours with the chemical substance) was 0.8 and the “The level of expressed mRNA in the presence of chemical substance/The level of expressed mRNA in the absence of chemical substance” value (yeast gene YNL037C) was 0.9. For the same molecule, the “The level of expressed mRNA in the presence of chemical substance/The level of expressed mRNA in the absence of chemical substance” value (yeast gene YNL071W) was 1.1, the “The level of expressed mRNA in the presence of chemical substance/The level of expressed mRNA in the absence of chemical substance” value (yeast gene YNL237W) was 1.6 and the “The level of expressed mRNA in the presence of chemical substance/The level of expressed mRNA in the absence of chemical substance” value (yeast gene YNL331C) was 2.3. For the same molecule, the “The level of expressed mRNA in the presence of chemical substance/The level of expressed mRNA in the absence of chemical substance” value (yeast gene YOL086C, cells incubated two hours with the chemical substance) was 1.6, the “The level of expressed mRNA in the presence of chemical substance/The level of expressed mRNA in the absence of chemical substance” value (yeast gene YOL126C) was 1.4 and the “The level of expressed mRNA in the presence of chemical substance/The level of expressed mRNA in the absence of chemical substance” value (yeast gene YOL157C) was 1.1. The “The level of expressed mRNA in the presence of chemical substance/The level of expressed mRNA in the absence of chemical substance” value (yeast gene YOL165C) was 3.0, the “The level of expressed mRNA in the presence of chemical substance/The level of expressed mRNA in the absence of chemical substance” value (yeast gene YOR136W) was 1.2 and the “The level of expressed mRNA in the presence of chemical substance/The level of expressed mRNA in the absence of chemical substance” value (yeast gene YOR221C) was 1.0. For the same molecule, the “The level of expressed mRNA in the presence of chemical substance/The level of expressed mRNA in the absence of chemical substance” value (yeast gene YOR347C) was 2.0, the “The level of expressed mRNA in the presence of chemical substance/The level of expressed mRNA in the absence of chemical substance” value (yeast gene YPL031C, cells incubated two hours with the chemical substance) was 0.7 and the “The level of expressed mRNA in the presence of chemical substance/The level of expressed mRNA in the absence of chemical substance” value (yeast gene YPL088W) was 3.2. The “The level of expressed mRNA in the presence of chemical substance/The level of expressed mRNA in the absence of chemical substance” value (yeast gene YPL171C) was 1.4, the “The level of expressed mRNA in the presence of chemical substance/The level of expressed mRNA in the absence of chemical substance” value (yeast gene YPL240C) was 1.2 and the “The level of expressed mRNA in the presence of chemical substance/The level of expressed mRNA in the absence of chemical substance” value (yeast gene YPL271W) was 0.8. For the same molecule, the “The level of expressed mRNA in the presence of chemical substance/The level of expressed mRNA in the absence of chemical substance” value (yeast gene YPR006C) was 0.7 and the “The level of expressed mRNA in the presence of chemical substance/The level of expressed mRNA in the absence of chemical substance” value (yeast gene YPR026W) was 3.1.
